Measured values as given in patent US12497610B2, “Functional genomics using CRISPR-CAS systems for saturating mutagenesis of non-coding elements, compositions, methods, libraries and applications thereof” (THE BROAD INSTITUTE, INC., priority 2015, dated 2025).

System: human BCL11A erythroid enhancer
Test: Tiled pooled CRISPR-Cas9 screen for in situ functional mapping of the human BCL11A erythroid enhancer (HbF-high/HbF-low sort, sgRNA deep sequencing)
Type: cell-based
Conditions: for Enrichment Score: HbF enrichment, human library NGG and NGG RC sgRNAs filtered for enrichment score >0.259; for Dropout Score: human library sgRNAs that produced HbF enrichment over 0.259
Text: Every 20-mer sequence upstream of an NGG or NAG PAM sequence on the sense or anti-sense strand was identified for both the human and mouse orthologous +55, +58, and +62 DNase hypersensitive site (DHS) as well as BCL11A/BCL11a exon 2. Relative to the human hg 19 reference genome, a reference was used with the following substitutions to approximate a common low-HbF associated haplotype: rs1427407-G, rs1896293-T, rs6706648-T, rs6738440-G, rs7606173-C. Each of the sgRNA oligos were synthesized as previously described (37,41,64) and cloned using a Gibson Assembly master mix (New England Biolabs) into lentiGuide-Puro (Addgene plasmid ID 52963) BsmBI digested, PCR purified, and dephosphorylated. Gibson Assembly products were transformed to electrocompetent E. cloni cells (Lucigen). Sufficient colonies were isolated to ensure 90X library coverage for both human and mouse libraries. Plasmid libraries were deep sequenced (described below) to confirm representation.
Tiled Pooled CRISPR-Cas9 Screen for In Situ Functional Mapping the Human BCL11A Erythroid Enhancer.
HUDEP clone 2 (HUDEP-2) was utilized as previously described by from Nakamura and colleagues (49). HUDEP-2 cells were expanded in StemSpan SFEM (Stem Cell Technologies) supplemented with 10^−6 M dexamethasone (Sigma), 100 ng/mL human stem cell factor (SCF) (R&D), 3 IU/mL erythropoietin (Amgen), 1% L-glutamine (Life Technologies), and 2% penicillin/streptomycin (Life Technologies). 1 μg/mL doxycycline (Sigma) was included in the culture to induce expression of the human papilloma virus type 16 E6/E7 genes (49). HUDEP-2 cells were differentiated in Iscove's Modified Dulbecco's Medium (IMDM) supplemented with 330 μg/mL halo-transferrin (Sigma), 10 μg/mL recombinant human insulin (Sigma), 2 IU/mL heparin (Sigma), 5% human solvent detergent pooled plasma AB (Rhode Island Blood Center), 3 IU/mL erythropoietin (Amgen), 100 ng/mL human stem cell factor (SCF) (R&D), 1 μg/mL doxycycline (Sigma), 1% L-glutamine (Life Technologies), and 2% penicillin/streptomycin (Life Technologies).
HUDEP-2 cells with stable Cas9 expression were transduced at low multiplicity with the human sgRNA library lentivirus pool while in expansion medium. […] Cell numbers were maintained throughout the experiment at levels adequate to exceed 1000× representation of the library. 10 μg/mL blasticidin (Sigma) and 1 μg/mL puromycin (Sigma) were added 24 hours after transduction to select for lentiviral library integrants in cells with Cas9. Cells were cultured in expansion media for one week followed by differentiation media for an additional week.
Intracellular staining was performed by fixing cells with 0.05% glutaraldehyde (grade II) (Sigma) for 10 minutes at room temperature. Cells were centrifuged for 5 minutes at 350 g and then resuspended in 0.1% Triton-X100 (Life Technologies) for 5 minutes at room temperature for permeabilization. Triton X-100 was diluted with phosphate buffered saline (PBS) and then centrifuged at 350 g for 15 minutes. Cells were stained with anti-human antibodies for HbF (clone HbF-1 with FITC or APC conjugation; Life Technologies) and B-hemoglobin antibody (clone 37-8 with PerCP-Cy5 or PE conjugation; Santa Cruz) for 20 minutes in the dark. Cells were washed to remove unbound antibody prior to FACS analysis. 0.2 μg HbF and 2 μg of HbA CB-hemoglobin) antibodies were used per 5 million cells. Control cells exposed to a nontargeting sgRNA sample and BCL11A exon 2 were used as negative and positive controls respectively to establish flow cytometry conditions. Populations of cells with the top and bottom 10% of expression of HbF were sorted by FACS.
After sorting the HbF-high and HbF-low pools, library preparation and deep sequencing was performed as previously described (37). Briefly, genomic DNA was extracted using the Qiagen Blood and Tissue kit. […]

Substance	Enrichment Score	Dropout Score
BCL_01999_H_exon2 (guide ATCTCGATTGGTGAAGGGGANGGRC; listed as DNA, chemistry not given here)	0.6204	−0.7601
BCL_00254_H_exon2 (guide GATCATGACCTCCTCACCTGNGG; listed as DNA, chemistry not given here)	2.198	−2.256
BCL_00031_H_D55 (guide CTGGCAGACCCTCAAGAGCANGG; listed as DNA, chemistry not given here)	0.3216	−1.354
BCL_00181_H_D58 (guide CCTTCCGAAAGAGGCCCCCCNGG; listed as DNA, chemistry not given here)	0.3399	0.2621
BCL_02006_H_exon2 (guide TCTGGCACTGCCCACAGGTGNGGRC; listed as DNA, chemistry not given here)	1.489	−2.029
BCL_00185_H_D58 (guide GCAAACGGCCACCGATGGAGNGG; listed as DNA, chemistry not given here)	0.3196	−0.516
BCL_00266_H_exon2 (guide TCCCGTGGAGGTTGGCATCCNGG; listed as DNA, chemistry not given here)	0.5889	−0.1802
BCL_01618_H_D58 (guide TTGCTTTTATCACAGGCTCCNGGRC; listed as DNA, chemistry not given here)	0.8561	−0.8127
BCL_02003_H_exon2 (guide AAATAAGAATGTCCCCCAATNGGRC; listed as DNA, chemistry not given here)	1.085	−0.09695
BCL_01826_H_D62 (guide TTTGCTCTTCTCCAGGGTGTNGGRC; listed as DNA, chemistry not given here)	0.4003	−0.3386
BCL_00093_H_D55 (guide TCCCTTCCTAGAATTGGCCTNGG; listed as DNA, chemistry not given here)	0.5283	−0.5616
BCL_00233_H_D62 (guide CAGGAGGATCACCTGAGGTCNGG; listed as DNA, chemistry not given here)	0.6113	−9.202
BCL_00257_H_exon2 (guide TGCCAGATGAACTTCCCATTNGG; listed as DNA, chemistry not given here)	1.945	−1.9609
BCL_00096_H_D55 (guide AGCAAATAGGCTTAGTGTGCNGG; listed as DNA, chemistry not given here)	0.3521	−0.2396
BCL_01993_H_exon2 (guide ACCTGGATGCCAACCTCCACNGGRC; listed as DNA, chemistry not given here)	1.974	−1.736
BCL_00256_H_exon2 (guide GTGCCAGATGAACTTCCCATNGG; listed as DNA, chemistry not given here)	1.89	−1.764
BCL_00082_H_D55 (guide TCACAGGGTGTGCCCTGAGANGG; listed as DNA, chemistry not given here)	0.4174	−1.087
BCL_01790_H_D62 (guide TTGCCCGGGCTGGAATGCAANGGRC; listed as DNA, chemistry not given here)	0.4673	−8.123
BCL_00264_H_exon2 (guide AAAAGCATCCAATCCCGTGGNGG; listed as DNA, chemistry not given here)	0.5578	−1.376

Substance	Enrichment Score	Dropout Score
BCL_00228_H_D62 (guide TCCCAGCACTTTGGGAGGCCNGG; listed as DNA, chemistry not given here)	0.761	−5.658
BCL_00062_H_D55 (guide AGCAGCCCTGGGCACAGAAGNGG; listed as DNA, chemistry not given here)	0.3251	−0.6401
BCL_02002_H_exon2 (guide AAAATAAGAATGTCCCCCAANGGRC; listed as DNA, chemistry not given here)	0.505	−0.4259
BCL_01427_H_D55 (guide GGCTAAATAATGAATGTCCCNGGRC; listed as DNA, chemistry not given here)	0.367	−0.2716
BCL_01684_H_D58 (guide ACAACCTCCTTGTTTACAGANGGRC; listed as DNA, chemistry not given here)	0.4945	0.3674
BCL_01799_H_D62 (guide CTCAGGTGATCCTCCTGCCCNGGRC; listed as DNA, chemistry not given here)	0.9108	−9.478
BCL_00160_H_D58 (guide TCAGGGGGAGGCAAGTCAGTNGG; listed as DNA, chemistry not given here)	0.3294	−0.318
BCL_00064_H_D55 (guide TGCCAACAGTGATAACCAGCNGG; listed as DNA, chemistry not given here)	0.5108	−0.3581
BCL_01450_H_D55 (guide TGCTTGGTCGGCACTGATAGNGGRC; listed as DNA, chemistry not given here)	1.578	−0.3195
BCL_00108_H_D55 (guide TCTGAGGAGCTAGAGACTTGNGG; listed as DNA, chemistry not given here)	0.3065	−0.6499
BCL_02014_H_exon2 (guide TCTGTAAGAATGGCTTCAAGNGGRC; listed as DNA, chemistry not given here)	0.9901	−0.7711
BCL_01624_H_D58 (guide GGTTTGGCCTCTGATTAGGGNGGRC; listed as DNA, chemistry not given here)	1.472	−0.7713
BCL_01991_H_exon2 (guide CGTCATCCTCTGGCGTGACCNGGRC; listed as DNA, chemistry not given here)	0.8523	−0.7166
BCL_00154_H_D58 (guide AGGGAAAAGGGAGAGGAAAANGG; listed as DNA, chemistry not given here)	0.4446	−0.3992
BCL_01461_H_D55 (guide GCCCTGCTGGTTATCACTGTNGGRC; listed as DNA, chemistry not given here)	0.5924	−0.5115
BCL_00249_H_exon2 (guide TGAACCAGACCACGGCCCGTNGG; listed as DNA, chemistry not given here)	1.175	−0.8221
BCL_00262_H_exon2 (guide CCTCTGCTTAGAAAAAGCTGNGG; listed as DNA, chemistry not given here)	1.001	−1.352
BCL_01617_H_D58 (guide CTAACAGTTGCTTTTATCACNGGRC; listed as DNA, chemistry not given here)	2.495	−0.7193
